Results taken from the supplement of paper PMC10307832.

Tests used:
Experiment in all cases: relative viability (nuclei count vs DMSO), 5 days (fraction); higher = more cells survive
LU99A = test system: LU99A
Procedure, shortened: (§1)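 Relative viability was taken as the ratio of nuclei in treated wells to nuclei in vehicle wells. Lung cancer cell lines in 1536-well plates received compounds by pin tool one day after seeding, either one drug alone or a fixed anchor-drug dose plus five library-drug doses (not always all listed) in √10 steps. Nuclei were counted on 4× images after 5 days of treatment, and values are medians of duplicate plates.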

COR-L23 = test system: COR-L23
Procedure, shortened: as §1

NCI-H441 = test system: NCI-H441
Procedure, shortened: as §1

NCI-H1563 = test system: NCI-H1563
Procedure, shortened: as §1

NCI-H838 = test system: NCI-H838
Procedure, shortened: as §1

BEN = test system: BEN
Procedure, shortened: as §1

NCI-H1651 = test system: NCI-H1651
Procedure, shortened: as §1

LOU-NH91 = test system: LOU-NH91
Procedure, shortened: as §1

NCI-H1437 = test system: NCI-H1437
Procedure, shortened: as §1

NCI-H1793 = test system: NCI-H1793
Procedure, shortened: as §1

NCI-H2085 = test system: NCI-H2085
Procedure, shortened: as §1

SK-LU-1 = test system: SK-LU-1
Procedure, shortened: as §1

NCI-H2023 = test system: NCI-H2023
Procedure, shortened: as §1

CAL-12T = test system: CAL-12T
Procedure, shortened: as §1

NCI-H1650 = test system: NCI-H1650
Procedure, shortened: as §1

NCI-H1355 = test system: NCI-H1355
Procedure, shortened: as §1

NCI-H1975 = test system: NCI-H1975
Procedure, shortened: as §1

NCI-H2342 = test system: NCI-H2342
Procedure, shortened: as §1

HCC-366 = test system: HCC-366
Procedure, shortened: as §1

NCI-H460 = test system: NCI-H460
Procedure, shortened: as §1

NCI-H1734 = test system: NCI-H1734
Procedure, shortened: as §1

NCI-H358 = test system: NCI-H358
Procedure, shortened: as §1

Compound: O=c1cc(-c2cccc3c2Sc2ccccc2S3)oc(N2CCOCC2)c1 + COc1cc2c(Oc3ccc(NC(=O)C4(C(=O)Nc5ccc(F)cc5)CC4)cc3F)ccnc2cc1OCCCN1CCOCC1 [Foretinib] (partner 0.25 µM)
- relative viability (LU99A; first compound 0.08 µM): 0.825
- relative viability (LU99A; first compound 0.253 µM): 0.841
- relative viability (LU99A; first compound 0.8 µM): 1.04
- relative viability (LU99A; first compound 2.53 µM): 0.829
- relative viability (LU99A; first compound 8 µM): 1.13
- relative viability (COR-L23; first compound 0.08 µM): 0.946
- relative viability (COR-L23; first compound 0.253 µM): 1.11
- relative viability (COR-L23; first compound 0.8 µM): 1.1
- relative viability (COR-L23; first compound 2.53 µM): 0.971
- relative viability (COR-L23; first compound 8 µM): 1.17
- relative viability (NCI-H441; first compound 0.08 µM): 0.512
- relative viability (NCI-H441; first compound 0.253 µM): 1.09
- relative viability (NCI-H441; first compound 0.8 µM): 1.35
- relative viability (NCI-H441; first compound 2.53 µM): 0.882
- relative viability (NCI-H441; first compound 8 µM): 0.98
- relative viability (NCI-H1563; first compound 0.08 µM): 0.922
- relative viability (NCI-H1563; first compound 0.253 µM): 0.895
- relative viability (NCI-H1563; first compound 0.8 µM): 0.868
- relative viability (NCI-H1563; first compound 2.53 µM): 0.89
- relative viability (NCI-H1563; first compound 8 µM): 0.91
- relative viability (NCI-H838; first compound 0.08 µM): 0.995
- relative viability (NCI-H838; first compound 0.253 µM): 1.25
- relative viability (NCI-H838; first compound 0.8 µM): 0.88
- relative viability (NCI-H838; first compound 2.53 µM): 0.878
- relative viability (NCI-H838; first compound 8 µM): 0.972
- relative viability (BEN; first compound 0.08 µM): 0.485
- relative viability (BEN; first compound 0.253 µM): 0.662
- relative viability (BEN; first compound 0.8 µM): 0.674
- relative viability (BEN; first compound 2.53 µM): 0.578
- relative viability (BEN; first compound 8 µM): 0.97
- relative viability (NCI-H1651; first compound 0.08 µM): 0.798
- relative viability (NCI-H1651; first compound 0.253 µM): 0.909
- relative viability (NCI-H1651; first compound 0.8 µM): 0.861
- relative viability (NCI-H1651; first compound 2.53 µM): 0.754
- relative viability (NCI-H1651; first compound 8 µM): 0.979
- relative viability (LOU-NH91; first compound 0.08 µM): 0.976
- relative viability (LOU-NH91; first compound 0.253 µM): 0.906
- relative viability (LOU-NH91; first compound 0.8 µM): 0.833
- relative viability (LOU-NH91; first compound 2.53 µM): 0.838
- relative viability (LOU-NH91; first compound 8 µM): 0.967
- relative viability (NCI-H1437; first compound 0.08 µM): 1.27
- relative viability (NCI-H1437; first compound 0.253 µM): 1.41
- relative viability (NCI-H1437; first compound 0.8 µM): 1.32
- relative viability (NCI-H1437; first compound 2.53 µM): 1.23
- relative viability (NCI-H1437; first compound 8 µM): 1.33
- relative viability (NCI-H1793; first compound 0.08 µM): 0.681
- relative viability (NCI-H1793; first compound 0.253 µM): 0.826
- relative viability (NCI-H1793; first compound 0.8 µM): 0.562
- relative viability (NCI-H1793; first compound 2.53 µM): 0.595
- relative viability (NCI-H1793; first compound 8 µM): 0.588
- relative viability (NCI-H2085; first compound 0.08 µM): 0.907
- relative viability (NCI-H2085; first compound 0.253 µM): 1.21
- relative viability (NCI-H2085; first compound 0.8 µM): 0.975
- relative viability (NCI-H2085; first compound 2.53 µM): 0.771
- relative viability (NCI-H2085; first compound 8 µM): 0.845
- relative viability (SK-LU-1; first compound 0.08 µM): 0.787
- relative viability (SK-LU-1; first compound 0.253 µM): 1.05
- relative viability (SK-LU-1; first compound 0.8 µM): 0.906
- relative viability (SK-LU-1; first compound 2.53 µM): 0.842
- relative viability (SK-LU-1; first compound 8 µM): 0.831
- relative viability (NCI-H2023; first compound 0.08 µM): 0.688
- relative viability (NCI-H2023; first compound 0.253 µM): 0.889
- relative viability (NCI-H2023; first compound 0.8 µM): 0.965
- relative viability (NCI-H2023; first compound 8 µM): 0.861
- relative viability (CAL-12T; first compound 0.08 µM): 0.951
- relative viability (CAL-12T; first compound 0.253 µM): 1.15
- relative viability (CAL-12T; first compound 0.8 µM): 1.19
- relative viability (CAL-12T; first compound 2.53 µM): 1.14
- relative viability (CAL-12T; first compound 8 µM): 1
- relative viability (NCI-H1650; first compound 0.08 µM): 1.35
- relative viability (NCI-H1650; first compound 0.253 µM): 1.04
- relative viability (NCI-H1650; first compound 0.8 µM): 0.998
- relative viability (NCI-H1650; first compound 2.53 µM): 0.902
- relative viability (NCI-H1650; first compound 8 µM): 1.19
- relative viability (NCI-H1355; first compound 0.08 µM): 0.999
- relative viability (NCI-H1355; first compound 0.253 µM): 1.12
- relative viability (NCI-H1355; first compound 0.8 µM): 0.861
- relative viability (NCI-H1355; first compound 2.53 µM): 0.977
- relative viability (NCI-H1355; first compound 8 µM): 0.926
- relative viability (NCI-H1975; first compound 0.08 µM): 0.966
- relative viability (NCI-H1975; first compound 0.253 µM): 0.924
- relative viability (NCI-H1975; first compound 0.8 µM): 0.931
- relative viability (NCI-H1975; first compound 2.53 µM): 0.946
- relative viability (NCI-H1975; first compound 8 µM): 1.02
- relative viability (NCI-H2342; first compound 0.08 µM): 0.996
- relative viability (NCI-H2342; first compound 0.253 µM): 1.04
- relative viability (NCI-H2342; first compound 0.8 µM): 0.916
- relative viability (NCI-H2342; first compound 2.53 µM): 0.917
- relative viability (NCI-H2342; first compound 8 µM): 1.11
- relative viability (HCC-366; first compound 0.08 µM): 0.911
- relative viability (HCC-366; first compound 0.253 µM): 0.89
- relative viability (HCC-366; first compound 0.8 µM): 0.635
- relative viability (HCC-366; first compound 2.53 µM): 0.903
- relative viability (HCC-366; first compound 8 µM): 1.03
- relative viability (NCI-H460; first compound 0.08 µM): 1.04
- relative viability (NCI-H460; first compound 0.253 µM): 1.01
- relative viability (NCI-H460; first compound 0.8 µM): 0.963
- relative viability (NCI-H460; first compound 2.53 µM): 1.02
- relative viability (NCI-H460; first compound 8 µM): 1.13
- relative viability (NCI-H1734; first compound 0.08 µM): 0.788
- relative viability (NCI-H1734; first compound 0.253 µM): 1.04
- relative viability (NCI-H1734; first compound 0.8 µM): 0.99
- relative viability (NCI-H1734; first compound 8 µM): 0.94
- relative viability (NCI-H358; first compound 0.08 µM): 0.622
- relative viability (NCI-H358; first compound 0.253 µM): 0.753
- relative viability (NCI-H358; first compound 0.8 µM): 0.635
- relative viability (NCI-H358; first compound 2.53 µM): 0.825
- relative viability (NCI-H358; first compound 8 µM): 0.797
